Publication PMC9569529, “Safe and Efficient Sigma1 Ligand: A Potential Drug Candidate for Multiple Sclerosis” (International Journal of Molecular Sciences, 2022)

Assays:
S1R = biological target: T1, S1R (Homo sapiens, UniProt Q99720); test: S1R binding assay, [3H](+)-pentazocine, Jurkat cell membranes
T1 construct: host or cells: Jurkat cell membranes
Experimental: (§1) The binding assays were performed by Eurofins Cerep (Poitiers, France) according to Ganapathy. Briefly, S1R)binding assay was carried out by incubating Jurkat cell membranes ([…] protein per tube) with [^3H] (+)-pentazocine (15 nM) and a range of concentrations of test compounds at 37 °C for 2 h in 5 mM Tris HCl buffer (pH = 7.4). The S2R binding assay was performed by incubating Jurkat cell membranes ([…] protein per tube) with [^3H]-DTG (25 nM) in the presence of (+)-pentazocine (1 mM), to saturate S1R, and a range of concentrations of test compounds at room temperature for 1 h in 5 mM Tris HCl buffer (pH = 7.4). Bound radioactivity was measured using liquid scintillation counting. Nonspecific binding was determined in both assays, under similar conditions, as remaining in the presence of […] unlabeled haloperidol. Inhibition constants (Ki) were calculated from the IC50 values according to the method of Cheng and Prusoff.

S2R = biological target: T2, S2R (Homo sapiens, UniProt Q5BJF2); test: S2R binding assay, [3H]-DTG, Jurkat cell membranes
T2 construct: host or cells: Jurkat cell membranes
T2 sequence (Q5BJF2 whole entry): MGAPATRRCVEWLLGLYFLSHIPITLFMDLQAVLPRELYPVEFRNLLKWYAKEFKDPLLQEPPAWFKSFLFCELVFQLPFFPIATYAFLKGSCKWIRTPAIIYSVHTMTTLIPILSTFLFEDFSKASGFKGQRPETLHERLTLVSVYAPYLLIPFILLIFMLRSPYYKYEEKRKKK
Experimental: as §1

P-gp [1] = biological target: T3, P-gp (Homo sapiens, UniProt P08183); test: P-gp substrate assessment, Caco-2 with and without verapamil; assay type: in vitro ADME
T3 construct: in the Caco-2 cell line with and without verapamil; host or cells: Caco-2
T3 sequence (P08183 whole entry): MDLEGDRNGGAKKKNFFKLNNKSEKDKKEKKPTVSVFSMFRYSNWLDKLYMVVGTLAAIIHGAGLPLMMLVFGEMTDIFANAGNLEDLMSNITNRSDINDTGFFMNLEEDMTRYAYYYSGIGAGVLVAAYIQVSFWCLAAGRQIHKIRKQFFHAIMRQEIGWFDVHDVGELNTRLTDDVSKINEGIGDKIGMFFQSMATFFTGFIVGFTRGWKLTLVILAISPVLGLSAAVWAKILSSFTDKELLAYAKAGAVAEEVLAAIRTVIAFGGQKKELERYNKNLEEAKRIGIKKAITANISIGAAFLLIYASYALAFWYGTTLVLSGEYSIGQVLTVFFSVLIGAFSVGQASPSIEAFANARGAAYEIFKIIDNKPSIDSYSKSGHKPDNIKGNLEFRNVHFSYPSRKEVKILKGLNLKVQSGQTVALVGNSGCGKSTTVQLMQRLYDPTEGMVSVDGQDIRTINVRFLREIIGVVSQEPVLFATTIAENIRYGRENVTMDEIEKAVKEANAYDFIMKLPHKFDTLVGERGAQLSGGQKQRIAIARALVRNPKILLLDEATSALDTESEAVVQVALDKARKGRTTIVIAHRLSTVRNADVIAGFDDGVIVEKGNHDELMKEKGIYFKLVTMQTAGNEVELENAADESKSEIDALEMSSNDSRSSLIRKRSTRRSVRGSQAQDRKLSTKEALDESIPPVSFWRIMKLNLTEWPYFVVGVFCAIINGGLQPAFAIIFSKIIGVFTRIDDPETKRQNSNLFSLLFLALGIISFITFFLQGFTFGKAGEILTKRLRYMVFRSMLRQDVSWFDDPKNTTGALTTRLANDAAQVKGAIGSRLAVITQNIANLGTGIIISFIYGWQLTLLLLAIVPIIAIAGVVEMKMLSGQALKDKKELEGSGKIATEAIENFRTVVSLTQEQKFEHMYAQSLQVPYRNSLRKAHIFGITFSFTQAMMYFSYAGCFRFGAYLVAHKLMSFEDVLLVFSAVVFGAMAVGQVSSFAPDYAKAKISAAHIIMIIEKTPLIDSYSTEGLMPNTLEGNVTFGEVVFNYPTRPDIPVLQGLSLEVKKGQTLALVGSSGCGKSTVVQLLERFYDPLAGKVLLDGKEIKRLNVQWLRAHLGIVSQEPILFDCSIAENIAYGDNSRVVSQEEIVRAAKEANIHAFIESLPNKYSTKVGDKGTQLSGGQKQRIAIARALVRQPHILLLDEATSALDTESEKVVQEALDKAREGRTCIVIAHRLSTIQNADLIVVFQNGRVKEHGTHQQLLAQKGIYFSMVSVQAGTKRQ
Experimental: (§2) The compound was classically evaluated at 10 µM for all the ADME analyses. Bidirectional permeability (apical A to basolateral B pH 6.5/7.4 and basolateral B to apical A pH 7.4/6.5) was assessed in the epithelial colorectal adenocarcinoma cell line (Caco-2 cell line). Results were expressed as × 10^−6cm/s (Papp) and as % recovery. Efflux ratio, i.e., Papp(B-A)/Papp(A-B), was calculated. Plasma protein binding was analyzed by HPLC-MS/MS after 4-h incubation at 37 °C, as described by Banker et al.. Concentration was evaluated by LC/MS-MS. CYP inhibition was performed in human liver microsomes as described in [61]. Analysis of the respective metabolites. was performed by HPLC-MS/MS. Transporter inhibition analysis was also performed in overexpressing cell lines. Respective metabolites for each specific transporter substrate were analyzed by fluorometry or scintillation counting and % inhibition of control values were calculated. P-glycoprotein transporter substrate assessment was performed by bidirectional permeability analysis (apical A to basolateral B pH 7.4/7.4 and basolateral B to apical A pH 7.4/7.4) in the Caco-2 cell line with and without verapamil, as described in [59]. Results were expressed as ×10^−6 cm/s (Papp) and as % recovery. The efflux ratio, i.e., Papp(B-A)/Papp(A-B), was calculated. CYP450 induction characterization was performed on human hepatocytes. The mRNA levels of 7 different CYPs were analyzed by qPCR, as described in [72]. The compound was evaluated at 1, 10 and 100 µM. Fold-induction values were determined and compared to cut-off values, as defined for each CYP isozyme in each hepatocyte lot.

P-gp [2] = tested on: T4, P-gp; test: as above; assay type: in vitro ADME; settings: human
T4 construct: in the Caco-2 cell line with and without verapamil; host or cells: Caco-2
Experimental: as §2

Caco-2 cell line = test: Bidirectional permeability in Caco-2 (pH 6.5/7.4); assay type: in vitro ADME, human; settings: Papp(B-A)/Papp(A-B), pH 6.5/7.4
Experimental: as §2

T1 sequence (Q99720 whole entry): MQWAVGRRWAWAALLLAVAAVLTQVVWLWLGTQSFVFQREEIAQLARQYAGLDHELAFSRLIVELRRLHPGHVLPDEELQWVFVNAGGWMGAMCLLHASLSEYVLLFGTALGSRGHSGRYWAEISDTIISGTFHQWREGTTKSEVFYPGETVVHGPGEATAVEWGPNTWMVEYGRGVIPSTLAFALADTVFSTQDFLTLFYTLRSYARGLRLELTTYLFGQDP

Structure (SMILES) | Ki (S1R) [nM] | Ki (S2R) [nM] | P-gp substrate (conclusion) (P-gp [1]; comparison of efflux ratios with/without verapamil) | Papp A→B at 10 µM (P-gp [1]; human, pH 7.4, Caco-2, 10 µM, PBS (no verapamil), read-out: P-gp substrate, PBS, A/B pH7.4/7.4) [×10⁻⁶ cm/s] | Papp B→A at 10 µM (P-gp [1]; human, pH 7.4, Caco-2, 10 µM, PBS (no verapamil), read-out: P-gp substrate, PBS, B/A pH7.4/7.4) [×10⁻⁶ cm/s] | efflux ratio at 10 µM (P-gp [1]; human, Caco-2, pH 7.4/7.4, PBS (no verapamil), read-out: P-gp substrate, PBS, e-ratio) | Papp A→B at 10 µM (P-gp [2]; pH 7.4, Caco-2, 10 µM, with verapamil, read-out: P-gp substrate, Verapamil, A/B pH7.4/7.4) [×10⁻⁶ cm/s] | Papp B→A at 10 µM (P-gp [2]; pH 7.4, Caco-2, 10 µM, with verapamil, read-out: P-gp substrate, Verapamil, B/A pH7.4/7.4) [×10⁻⁶ cm/s] | efflux ratio at 10 µM (P-gp [2]; Caco-2, pH 7.4/7.4, with verapamil, read-out: P-gp substrate, Verapamil, e-ratio) | e-ratio (efflux ratio) (Caco-2 cell line)
O=C(NCCCNCc1ccccc1)c1ccc(Cl)cc1 [compound 7i-deMe] | 23 | > 1000 | – | – | – | – | – | – | – | –
CN(CCCNC(=O)c1ccc(Cl)cc1)Cc1ccccc1 [compound 7i] | – | – | not a substrate | 45.8 | 11.7 | 0.3 | 28 | 16.9 | 0.6 | 2.3
